How the values were obtained:
[1] = tested on: Haemophilus influenzae serotype b; experiment: PRP production in liquid garden pea peptone-based culture medium as a function of heme source (sandwich ELISA on supernatant); type: cell-based; details: garden pea medium, 16 h
Procedure: The production of PRP obtained after 16 hours of bacterial culture in liquid plant peptones-based culture media in which the heme source was either hemin or protoporphyrin IX of animal origin (porcine protoporphyrin) in disodium salt form, or protoporphyrin IX of purely synthetic origin in disodium salt form was compared. […] An enzymatic hydrolysate of garden pea peptone provided by Kerry (Hy pea 7404) and a wheat peptone provided by Organotechnie (19559) were tested at a concentration in the culture medium equivalent to 0.87 g/l of protein nitrogen. By reference to the current methods for the production of PRP, PRP production was also measured in a medium that contains a peptone of animal origin, such as casein hydrolysate (HAC) provided by Solabia at a concentration in the medium equivalent to 0.87 g/l with increased concentrations of hemin (see table III).
(§1) 1.1) Preparation of the Media • 1.1.1. Stock solution of β-NAD (Fluka) at 1 g/l in water which was ultrafiltered and then sterilized by filtration through 0.22 μm. • 1.1.2. Stock solution of hemin (Sigma) at 0.25 g/l in water was ultrafiltered, comprising 5 ml of 25% aqueous ammonia (Cooper) to aid dissolution. The stock solution was sterilized by filtration through 0.22 μm. • 1.1.3. Stock solution of porcine protoporphyrin IX (Sigma) at 0.25 g/l in ultrafiltered water comprising 5 ml of 25% aqueous ammonia (Cooper) in order to facilitate the dissolution. The stock solution was sterilized by filtration through 0.22 μm. • 1.1.4. Stock solution of synthetic protoporphyrin IX at 0.25 g/l in ultrafiltered water comprising 5 ml of 25% aqueous ammonia (Cooper) in order to facilitate the dissolution. The stock solution was also heated to 80° C. in a water bath with stirring in order to complete the dissolution before being sterilized by filtration through 0.22 μm. The protoporphyrin IX, in disodium salt form, was synthesized according to the method described in the U.S. provisional patent application Ser. No. 12/057,574, filed Mar. 28, 2008 and application Ser. No. 60/943,735 and filed on Jun. 13, 2007 using the steps which are described in scheme 2. • The stock solutions of hemin and protoporphyrin IX were checked for their respective contents of active compounds after sterilizing filtration. The protoporphyrin IX and hemin contents were determined by Reversed Phase High Performance Liquid Chromatography (RP-HPLC). The chromatographic chain comprises a twin head pump module allowing the formation of a binary gradient, a programmable automatic injector, a diode array UV detector and a chromatographic column of the type Synergi 4 μm, Polar RP-80A (150×4.6) mm, ref 00F-4336-E0, Phenomenex. • The stock solution of hemin (Sigma) to be checked after filtration was diluted ⅓ in distilled water. The stock solutions of porcine protoporphyrin IX (Sigma) and of synthetic protoporphyrin IX to be checked after filtration were diluted ¼ in distilled water. In parallel, a calibration series was prepared in ammoniated water ranging from 0.025 g/l to 0.125 g/l of protoporphyrin IX from porcine protoporphyrin IX from Sigma (ref: 25838-5) and a calibration series ranging from 0.050 g/l to 0.150 g/l of hemin from hemin from Sigma (ref: H5533-256). The samples to be checked and the various solutions of the calibration series were injected in a volume of 20 μl (for the hemin solutions and samples) and of 5 μl (for the protoporphyrin IX solutions and samples). The initial mobile phase consisting of a volume for volume mixture of acetonitrile and 10 mM KH2PO4 pH 2.5 is set at a flow rate of 1 ml/min. A discontinuous gradient was then produced from this mobile phase in order to separate the molecules of interest which are detected at a wavelength of 400 nm. […]

[2] = tested on: Haemophilus influenzae serotype b; experiment: PRP production in liquid wheat peptone-based culture medium as a function of heme source (sandwich ELISA on supernatant); type: cell-based; details: wheat medium, 16 h
Procedure: The production of PRP obtained after 16 hours of bacterial culture in liquid plant peptones-based culture media in which the heme source was either hemin or protoporphyrin IX of animal origin (porcine protoporphyrin) in disodium salt form, or protoporphyrin IX of purely synthetic origin in disodium salt form was compared. The hemin and protoporphyrin IX concentration ranges in the culture media varied from about 0.010 g/l to about 2 g/l so as to obtain PRP titration curves as a function of the heme source tested and as a function of the plant peptone tested. An enzymatic hydrolysate of garden pea peptone provided by Kerry (Hy pea 7404) and a wheat peptone provided by Organotechnie (19559) were tested at a concentration in the culture medium equivalent to 0.87 g/l of protein nitrogen. By reference to the current methods for the production of PRP, PRP production was also measured in a medium that contains a peptone of animal origin, such as casein hydrolysate (HAC) provided by Solabia at a concentration in the medium equivalent to 0.87 g/l with increased concentrations of hemin (see table III).
as §1

[3] = synthetic protoporphyrin IX 9.96 μg/l
[4] = synthetic protoporphyrin IX 49.8 μg/l
[5] = synthetic protoporphyrin IX 99.6 μg/l
[6] = synthetic protoporphyrin IX 249 μg/l
[7] = synthetic protoporphyrin IX 498 μg/l
[8] = synthetic protoporphyrin IX 996 μg/l
[9] = synthetic protoporphyrin IX 1494 μg/l
[10] = synthetic protoporphyrin IX 1992 μg/l

Substance: protoporphyrin IX [Synthetic protoporphyrin IX]
- Mean PRP [1, 3]: 11.55 mg/L
- PRP in mg/l Assay 1 [1, 3]: 11.3 mg/L
- PRP in mg/l Assay 2 [1, 3]: 11.8 mg/L
- Mean PRP [1, 4]: 136.5 mg/L
- PRP in mg/l Assay 1 [1, 4]: 139 mg/L
- PRP in mg/l Assay 2 [1, 4]: 134 mg/L
- Mean PRP [1, 5]: 356.5 mg/L
- PRP in mg/l Assay 1 [1, 5]: 330 mg/L
- PRP in mg/l Assay 2 [1, 5]: 383 mg/L
- Mean PRP [1, 6]: 488 mg/L
- PRP in mg/l Assay 1 [1, 6]: 474 mg/L
- PRP in mg/l Assay 2 [1, 6]: 502 mg/L
- Mean PRP [1, 7]: 387.5 mg/L
- PRP in mg/l Assay 1 [1, 7]: 383 mg/L
- PRP in mg/l Assay 2 [1, 7]: 392 mg/L
- Mean PRP [1, 8]: 499 mg/L
- PRP in mg/l Assay 1 [1, 8]: 524 mg/L
- PRP in mg/l Assay 2 [1, 8]: 474 mg/L
- Mean PRP [1, 9]: 513 mg/L
- PRP in mg/l Assay 1 [1, 9]: 503 mg/L
- PRP in mg/l Assay 2 [1, 9]: 523 mg/L
- Mean PRP [1, 10]: 488.5 mg/L
- PRP in mg/l Assay 1 [1, 10]: 480 mg/L
- PRP in mg/l Assay 2 [1, 10]: 497 mg/L
- Mean PRP [2, 3]: 30.7 mg/L
- PRP in mg/l Assay 1 [2, 3]: 33.5 mg/L
- PRP in mg/l Assay 2 [2, 3]: 27.9 mg/L
- Mean PRP [2, 4]: 318 mg/L
- PRP in mg/l Assay 1 [2, 4]: 317 mg/L
- PRP in mg/l Assay 2 [2, 4]: 319 mg/L
- Mean PRP [2, 5]: 413 mg/L
- PRP in mg/l Assay 1 [2, 5]: 389 mg/L
- PRP in mg/l Assay 2 [2, 5]: 437 mg/L
- Mean PRP [2, 6]: 347.5 mg/L
- PRP in mg/l Assay 1 [2, 6]: 345 mg/L
- PRP in mg/l Assay 2 [2, 6]: 350 mg/L
- Mean PRP [2, 7]: 394.5 mg/L
- PRP in mg/l Assay 1 [2, 7]: 380 mg/L
- PRP in mg/l Assay 2 [2, 7]: 409 mg/L
- Mean PRP [2, 8]: 402.5 mg/L
- PRP in mg/l Assay 1 [2, 8]: 401 mg/L
- PRP in mg/l Assay 2 [2, 8]: 404 mg/L
- Mean PRP [2, 9]: 354 mg/L
- PRP in mg/l Assay 1 [2, 9]: 358 mg/L
- PRP in mg/l Assay 2 [2, 9]: 350 mg/L
- Mean PRP [2, 10]: 404 mg/L
- PRP in mg/l Assay 1 [2, 10]: 378 mg/L
- PRP in mg/l Assay 2 [2, 10]: 430 mg/L
